PMC11370452 (bioRxiv, 2024)

Assays:
[1] = molecular target: GABABR (Rattus norvegicus, UniProt O88871+Q9Z0U4); type: cell-based; conditions: with Gαi bystander BRET sensor expression versus control
[2] = test system: MOR; conditions: database annotation; cited from earlier work

Sequence of GABABR (Q9Z0U4 17-960 limits assumed): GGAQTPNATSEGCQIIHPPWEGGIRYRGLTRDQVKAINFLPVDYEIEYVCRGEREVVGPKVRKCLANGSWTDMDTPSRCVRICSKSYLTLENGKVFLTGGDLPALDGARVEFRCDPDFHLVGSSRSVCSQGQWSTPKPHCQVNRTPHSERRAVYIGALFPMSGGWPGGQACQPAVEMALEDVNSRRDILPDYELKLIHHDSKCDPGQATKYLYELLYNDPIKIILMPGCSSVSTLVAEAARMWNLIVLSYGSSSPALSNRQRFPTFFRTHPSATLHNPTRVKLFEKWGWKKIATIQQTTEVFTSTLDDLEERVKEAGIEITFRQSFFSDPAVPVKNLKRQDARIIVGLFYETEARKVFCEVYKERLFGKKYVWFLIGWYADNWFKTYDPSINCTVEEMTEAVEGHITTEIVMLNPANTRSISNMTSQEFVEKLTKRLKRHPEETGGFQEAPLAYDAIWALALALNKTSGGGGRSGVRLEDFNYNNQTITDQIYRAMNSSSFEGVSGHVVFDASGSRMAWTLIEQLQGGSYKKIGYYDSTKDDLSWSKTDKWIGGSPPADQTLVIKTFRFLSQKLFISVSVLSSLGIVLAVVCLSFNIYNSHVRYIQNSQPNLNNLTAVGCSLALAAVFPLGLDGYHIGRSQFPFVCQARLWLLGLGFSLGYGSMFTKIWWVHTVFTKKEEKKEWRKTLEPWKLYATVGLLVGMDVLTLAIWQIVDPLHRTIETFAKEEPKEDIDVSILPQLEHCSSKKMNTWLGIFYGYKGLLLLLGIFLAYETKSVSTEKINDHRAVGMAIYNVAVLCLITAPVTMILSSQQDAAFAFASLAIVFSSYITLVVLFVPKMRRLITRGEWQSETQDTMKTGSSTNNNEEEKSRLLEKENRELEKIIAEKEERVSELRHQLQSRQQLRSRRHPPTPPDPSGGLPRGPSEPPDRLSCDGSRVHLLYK
Sequence of GABABR (O88871 41-940 partner): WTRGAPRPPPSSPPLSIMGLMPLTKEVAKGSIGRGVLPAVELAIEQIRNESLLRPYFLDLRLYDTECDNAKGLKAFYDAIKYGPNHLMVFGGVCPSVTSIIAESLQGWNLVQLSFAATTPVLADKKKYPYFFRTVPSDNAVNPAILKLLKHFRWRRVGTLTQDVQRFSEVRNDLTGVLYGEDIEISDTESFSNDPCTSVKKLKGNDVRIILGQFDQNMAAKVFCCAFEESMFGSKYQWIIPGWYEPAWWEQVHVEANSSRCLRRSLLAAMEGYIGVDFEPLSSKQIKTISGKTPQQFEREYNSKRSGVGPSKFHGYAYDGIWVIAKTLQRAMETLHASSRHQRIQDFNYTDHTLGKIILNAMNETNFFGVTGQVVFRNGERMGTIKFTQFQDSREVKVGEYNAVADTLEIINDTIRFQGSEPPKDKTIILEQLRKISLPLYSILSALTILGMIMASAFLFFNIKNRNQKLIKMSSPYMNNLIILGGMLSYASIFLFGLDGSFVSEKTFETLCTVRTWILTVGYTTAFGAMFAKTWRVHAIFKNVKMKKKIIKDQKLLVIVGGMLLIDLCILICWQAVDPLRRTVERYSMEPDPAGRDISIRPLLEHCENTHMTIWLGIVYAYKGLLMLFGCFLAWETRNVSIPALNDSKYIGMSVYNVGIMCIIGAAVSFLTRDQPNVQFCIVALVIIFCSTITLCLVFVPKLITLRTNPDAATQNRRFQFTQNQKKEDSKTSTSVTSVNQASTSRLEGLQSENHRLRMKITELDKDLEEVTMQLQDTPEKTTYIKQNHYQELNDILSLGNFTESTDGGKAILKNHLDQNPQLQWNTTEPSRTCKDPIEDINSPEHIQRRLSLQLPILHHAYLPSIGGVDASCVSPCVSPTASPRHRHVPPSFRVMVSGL

increase in the IC50 of inhibition by GABA [1]	Compound	Agonist efficacy, MOR: IUPHAR annotation [2]
~ 4 fold	NCCCC(=O)O [GABA]	
	Leu-Enkephalin	partial agonist
